Source: ChEMBL document CHEMBL1129550, “Synthesis and cyclic GMP phosphodiesterase inhibitory activity of a series of 6-phenylpyrazolo[3,4-d]pyrimidones” (J Med Chem, 1996)

Assays:
[1] = biological target: cGMP-specific 3',5'-cyclic phosphodiesterase (Rattus norvegicus, UniProt O54735); assay: Compound was tested for inhibition of stimulation of rat aortic smooth muscle cells (RSMC); assay type: functional
[2] = biological target: T1, cGMP-specific 3',5'-cyclic phosphodiesterase (Homo sapiens, UniProt O76074); assay: Inhibition of Phosphodiesterase 5 from human
[3] = biological target: T1, cGMP-specific 3',5'-cyclic phosphodiesterase; assay: Inhibition of Phosphodiesterase 5 from human at dose 10 uM

Row | EC50 [1] | IC50 [2] | inhibition [3] | SMILES
1 | 300 nM | 5 nM | – | CCCOc1ccc(-c2cccs2)cc1-c1nc2c(c(C)nn2C)c(=O)[nH]1
2 | 50 nM | 3 nM | – | CCCOc1ccc(NC(=O)NCC)cc1-c1nc2c(c(C)nn2C)c(=O)[nH]1
3 | 50 nM | 0.1 nM | – | CCCOc1ccc([N+](=O)[O-])cc1-c1nc2c(c(C)nn2CC)c(=O)[nH]1
4 | 2000 nM | 30 nM | – | CCOc1ccccc1-c1nc2c(c(C)nn2C)c(=O)[nH]1
5 | 1500 nM | 7 nM | – | CCCOc1ccccc1-c1nc2c(c(C)nn2CC(F)(F)F)c(=O)[nH]1
6 | < 100 nM | 20 nM | – | CCCOc1ccc(-c2n[nH]c(-c3ccccc3)n2)cc1-c1nc2c(c(C)nn2C)c(=O)[nH]1
7 | 200 nM | 4 nM | – | CCCOc1ccc(NS(C)(=O)=O)cc1-c1nc2c(c(C)nn2CC)c(=O)[nH]1
8 | 200 nM | 2.5 nM | – | CCCOc1ccc(-c2csc(-c3ccccc3)n2)cc1-c1nc2c(c(C)nn2C)c(=O)[nH]1
9 | 300 nM | 4 nM | – | CCCOc1ccc(C(=O)CN2CCOCC2)cc1-c1nc2c(c(C)nn2C)c(=O)[nH]1
10 | 10000 nM | 50 nM | – | CCCOc1ccccc1-c1nc2ccncc2c(=O)[nH]1
11 | 60 nM | 3 nM | – | CCCOc1ccc(NC(=S)NCC)cc1-c1nc2c(c(C)nn2C)c(=O)[nH]1
12 | 200 nM | 20 nM | – | CCCOc1ccccc1-c1nc2c(c(C)nn2C(C)(C)C)c(=O)[nH]1
13 | 1000 nM | 1 nM | – | CCCOc1ccc(NC(N)=S)cc1-c1nc2c(c(C)nn2C)c(=O)[nH]1
14 | 30 nM | 2 nM | – | CCCOc1ccc(NC(C)=O)cc1-c1nc2c(c(C)nn2CC)c(=O)[nH]1
15 | 400 nM | 3.5 nM | – | CCCOc1ccc(NC(=O)CN2CCN(C)CC2)cc1-c1nc2c(c(C)nn2C)c(=O)[nH]1
16 | < 100 nM | 2 nM | – | CCCOc1ccccc1-c1nc2c(c(C)nn2CC)c(=O)[nH]1
17 | 300 nM | 10 nM | – | CCCOc1ccc(N)cc1-c1nc2c(c(C)nn2C)c(=O)[nH]1
18 | – | – | 59% | CCC[S+]([O-])c1ccccc1-c1nc2c(c(C)nn2C)c(=O)[nH]1 (stereo unspecified)
19 | < 100 nM | 4 nM | – | CCCOc1ccc(-c2ccc(C)s2)cc1-c1nc2c(c(C)nn2C)c(=O)[nH]1
20 | 300 nM | 5 nM | – | CCCOc1ccc(N(C)C)cc1-c1nc2c(c(C)nn2C)c(=O)[nH]1
21 | 7500 nM | 300 nM | – | CCCOc1ccccc1-c1nc2ncncc2c(=O)[nH]1
22 | < 100 nM | – | – | CCCOc1ccc(-c2csc(C)n2)cc1-c1nc2c(c(C)nn2CC)c(=O)[nH]1
23 | 700 nM | 60 nM | – | CCCOc1ccccc1-c1nc(O)c2c(C)csc2n1
24 | 40 nM | 0.2 nM | – | CCCOc1ccc(NC(=O)Nc2ccc(F)cc2)cc1-c1nc2c(c(C)nn2C)c(=O)[nH]1
25 | 350 nM | 3 nM | – | CCCOc1ccc(NS(C)(=O)=O)cc1-c1nc2c(c(C)nn2C)c(=O)[nH]1
26 | < 100 nM | 2 nM | – | CCCOc1ccc(-c2csc(-c3cccnc3)n2)cc1-c1nc2c(c(C)nn2CC)c(=O)[nH]1
27 | 2000 nM | 70 nM | – | CCCOc1ccccc1-c1nc2cnccc2c(=O)[nH]1
28 | 2000 nM | – | – | CCCOc1ccccc1-c1nc2nc[nH]c2c(=O)[nH]1

Row | EC50 [1] | IC50 [2] | inhibition [3] | SMILES
29 | > 10000 nM | 5 nM | – | CCCOc1ccc(Nc2nnc(N)[nH]2)cc1-c1nc2c(c(C)nn2C)c(=O)[nH]1
30 | > 10000 nM | 150 nM | – | CCCOc1ccccc1-c1nc(O)c2c[nH]nc2n1
31 | < 10 nM | 1.5 nM | – | CCCOc1ccc(NC(=O)c2cccs2)cc1-c1nc2c(c(C)nn2C)c(=O)[nH]1
32 | 350 nM | 70 nM | – | CCCOc1ccccc1-c1nc2c(c(C)nn2Cc2ccccc2)c(=O)[nH]1
33 | 900 nM | 2 nM | – | CCCOc1ccc(NC(N)=O)cc1-c1nc2c(c(C)nn2C)c(=O)[nH]1
34 | 100 nM | 2 nM | – | CCCOc1ccc(NC(=O)OC)cc1-c1nc2c(c(C)nn2C)c(=O)[nH]1
35 | 200 nM | 2.5 nM | – | CCCOc1ccc(-c2csc(C)n2)cc1-c1nc2c(c(C)nn2C)c(=O)[nH]1
36 | 1500 nM | 80 nM | – | CCCOc1ccccc1-c1nc(O)c2scc(C)c2n1
37 | 450 nM | 2.5 nM | – | CCCOc1ccc(-c2nc(C)cs2)cc1-c1nc2c(c(C)nn2C)c(=O)[nH]1
38 | 1500 nM | 30 nM | – | CCCOc1ccccc1-c1nc(O)c2c(C)snc2n1
39 | 1500 nM | 4 nM | – | CCCOc1ccc(N(C)C)cc1-c1nc2c(c(C)nn2CC)c(=O)[nH]1
40 | 20 nM | 7 nM | – | CCCOc1ccc(N)cc1-c1nc2c(c(C)nn2CC)c(=O)[nH]1
41 | 100 nM | 4 nM | – | CCCOc1ccc([N+](=O)[O-])cc1-c1nc2c(c(C)nn2C)c(=O)[nH]1
42 | 1000 nM | 40 nM | – | Cc1nn(C)c2nc(-c3ccccc3OC(C)C)[nH]c(=O)c12
43 | 150 nM | 1 nM | – | CCCOc1ccccc1-c1nc2c(c(C)nn2CCC)c(=O)[nH]1
44 | < 100 nM | 2 nM | – | CCCOc1ccc(-c2nc(C)cs2)cc1-c1nc2c(c(C)nn2CC)c(=O)[nH]1
45 | < 10 nM | 1.7 nM | – | CCCOc1ccc(-c2n[nH]c(-c3ccccc3)n2)cc1-c1nc2c(c(C)nn2CC)c(=O)[nH]1
46 | > 10000 nM | 100 nM | – | CCCOc1ccccc1-c1nc2onc(C)c2c(=O)[nH]1
47 | 2500 nM | 100 nM | – | CCCOc1ccccc1-c1nc(O)c2ccsc2n1
48 | < 10 nM | 2 nM | – | CCCOc1ccc(NC(=O)c2ccc(F)cc2)cc1-c1nc2c(c(C)nn2C)c(=O)[nH]1
49 | 40 nM | 0.8 nM | – | CCCOc1ccc(NC(C)=O)cc1-c1nc2c(c(C)nn2C)c(=O)[nH]1
50 | 900 nM | 6 nM | – | CCCCn1nc(C)c2c(=O)[nH]c(-c3ccccc3OCCC)nc21
51 | 200 nM | – | – | CCCOc1ccccc1-c1nc2c(c(C)nn2C)c(=O)[nH]1
52 | 200 nM | 3 nM | – | CCCOc1ccc(-c2csc(-c3ccccc3)n2)cc1-c1nc2c(c(C)nn2CC)c(=O)[nH]1
53 | < 100 nM | 3 nM | – | CCCOc1ccc(-c2nccs2)cc1-c1nc2c(c(C)nn2C)c(=O)[nH]1
54 | 40 nM | 2 nM | – | CCCOc1ccc(NC(=S)NC(=O)OCC)cc1-c1nc2c(c(C)nn2C)c(=O)[nH]1
55 | 1000 nM | 50 nM | – | CCCOc1ccccc1-c1nc(O)c2sccc2n1
